Measured values as given in patent US6262051A, “Fungicidal methoximinomethyldioxazines” (Bayer Aktiengesellschaft, priority 1997, dated 2001).

Legend:
[1] = tested on: Erysiphe graminis f.sp. hordei; test: Example B: Erysiphe test (barley)/curative; assay type: in vivo; conditions: curative (sprayed 48 hours after inoculation), 250 g/ha, 7 days after inoculation, vs untreated control
Protocol: (§1) Erysiphe test (barley)/curative Solvent: 10 parts by weight of N-methyl-pyrrolidone Emulsifier: 0.6 part by weight of alkylaryl polyglycol ether To produce a suitable preparation of active compound, 1 part by weight of active compound is mixed with the stated amount of solvent and emulsifier, and the concentrate is diluted with water to the desired concentration. To test for curative activity, young plants are dusted with spores of Erysiphe graminis f.sp. hordei. 48 hours after the inoculation, the plants are sprayed with the preparation of active compound at the stated application rate. The plants are placed in a greenhouse at a temperature of approximately 20° C. and a relative atmospheric humidity of approximately 80% to promote the development of mildew postures.

[2] = tested on: Erysiphe graminis f.sp. hordei; test: Example A: Erysiphe test (barley)/protective (N-methyl-pyrrolidone); assay type: in vivo; conditions: protective, 250 g/ha, 7 days after inoculation, vs untreated control
Protocol: as §1, with “test (barley)/protective” for “test (barley)/curative”, “0.6 parts” for “0.6 part”, “for protective” for “for curative”, “young” for “young plants are dusted with spores of Erysiphe graminis f.sp. hordei. 48 hours after the inoculation, the”, “rate. After the spray coating has dried on, the plants are dusted with spores of Erysiphe graminis f.sp. hordei.” for “rate.”, “mildew postules.” for “mildew postures.”

Plasmopara viticola = test: Example D: Plasmopara test (grapevine)/protective; assay type: in vivo; conditions: Plasmopara viticola, 144 h, protective, 6 days after inoculation, vs untreated control, read-out: Efficacy in %
Protocol: Plasmopara test (grapevine)/protective Solvent: 47 parts by weight of acetone Emulsifier: 3 parts by weight of alkylaryl polyglycol ether To produce a suitable preparation of active compound, 1 part by weight of active compound is mixed with the stated amount of solvent and emulsifier, and the concentrate is diluted with water to the desired concentration. To test for protective activity, young plants are sprayed with the preparation of active compound at the stated application rate. […]

Pyricularia oryzae = assay type: in vivo; conditions: rice, protective; 750 g/ha; 4 days after inoculation; vs untreated control
HPLC logP = assay type: physicochemical; conditions: Table 1
[3] = tested on: Erysiphe graminis f.sp. hordei; test: Example C: Erysiphe test (barley)/protective (N,N-dimethylacetamide); assay type: in vivo; conditions: protective, solvent N,N-dimethylacetamide, 250 g/ha, 7 days after inoculation, vs untreated control
Protocol: Erysiphe test (barley)/protective Solvent: 25 parts by weight of N,N-dimethylacetamide Emulsifier: 0.6 part by weight of alkylaryl polyglycol ether To produce a suitable preparation of active compound, 1 part by weight of active compound is mixed with the stated amount of solvent and emulsifier, and the concentrate is diluted with water to the desired concentration. To test for protective activity, young plants are sprayed with the preparation of active compound at the stated application rate. After the spray coating has dried on, the plants are dusted with spores of Erysiphe graminis f.sp. hordei. The plants are placed in a greenhouse at a temperature of approximately 20° C. and a relative atmospheric humidity of approximately 80% to promote the development of mildew postules.

Structure (SMILES) | Efficacy in % [1] | Efficacy in % [2] | pest or weed control at 100 g/ha (Plasmopara viticola) | Efficacy in % (Pyricularia oryzae) | chromatographic logP (HPLC logP) | Efficacy in % [3]
CON=C(C1=NOCCO1)c1ccccc1Oc1nccc(OCC(F)(F)F)n1 [Example 3] | 100% | 100% | ≤ 100% | at least 70% | 2.6 | 
CCCCCCOc1ccnc(Oc2ccccc2C(=NOC)C2=NOCCO2)n1 [Example 13] |  |  | ≤ 100% |  | 3.8 | 100%
